According to ChEMBL document CHEMBL5608173, “Discovery of novel natural-product-derived mutant isocitrate dehydrogenases 1 inhibitors: Structure-based virtual screening, biological evaluation and structure-activity relationship study” (Eur J Med Chem, 2024):
Calls of active or inactive are those of the source. No cut-off for these calls is given here.

Tests used:
[1] = Clearance in Sprague-Dawley rat at 5 mg/kg, po measured after 24 hrs by LC-MS/MS analysis; format: ADME, organism-based; conditions: in vivo
HT-1080 [2] = assay: Cell cycle arrest in human HT-1080 cells assessed as G2 phase cells at 10 uM incubated for 24 hrs by PI staining based flow cytometric analysis (reference value: 23.6 %); format: functional
HT-1080 [3] = assay: Induction of apoptosis in human HT-1080 cells assessed as viable cells at 4 uM incubated for 48 hrs by Annexin V-FITC/PI staining based flow cytometric analysis (reference value: 96.07 %); format: functional; conditions: read-out: Activity
HT-1080 [4] = assay: Induction of apoptosis in human HT-1080 cells assessed as necrotic cells at 4 uM incubated for 48 hrs by Annexin V-FITC/PI staining based flow cytometric analysis (reference value: 0.45 %); format: functional
[5] = Tmax in Sprague-Dawley rat at 5 mg/kg, po measured after 24 hrs by LC-MS/MS analysis; format: ADME, organism-based; conditions: in vivo
[6] = biological target: T1, Isocitrate dehydrogenase [NADP] cytoplasmic (Homo sapiens, UniProt O75874, R132H); assay: Inhibition of IDH1 R132H mutant in human U-87 MG cells assessed as reduction in 2-HG level incubated for 48 hrs in presence of NAD+ by resazurin fluorescence dye based Sigma MAK320-1 assay kit analysis; format: cell-based
T1 sequence (O75874 2-414 R132H limits assumed): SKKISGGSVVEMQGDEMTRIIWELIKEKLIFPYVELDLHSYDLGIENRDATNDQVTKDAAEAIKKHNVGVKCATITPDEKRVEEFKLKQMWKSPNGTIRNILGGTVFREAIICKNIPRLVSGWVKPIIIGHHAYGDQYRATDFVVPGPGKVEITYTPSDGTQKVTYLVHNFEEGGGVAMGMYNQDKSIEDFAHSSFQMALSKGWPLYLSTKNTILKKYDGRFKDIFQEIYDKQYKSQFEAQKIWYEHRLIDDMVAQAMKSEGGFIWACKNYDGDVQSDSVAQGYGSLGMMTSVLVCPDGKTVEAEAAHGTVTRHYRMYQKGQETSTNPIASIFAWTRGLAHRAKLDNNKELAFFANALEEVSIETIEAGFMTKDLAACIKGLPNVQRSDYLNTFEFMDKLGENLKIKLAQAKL

[7] = In vivo inhibition of IDH1 mutant in female nude mouse xenografted with human HT-1080 cells assessed as reduction in 2-HG levels in tumor at 20 mg/kg, ip administered twice at 1 hrs interval by resazurin fluorescence dye based Sigma MAK320-1 assay kit analysis relative to control; format: functional
HT-1080 [8] = assay: Induction of apoptosis in human HT-1080 cells assessed as viable cells at 6 uM incubated for 24 hrs by Annexin V-FITC/PI staining based flow cytometric analysis (reference value: 96.65 %); format: functional; conditions: read-out: Activity
HT-1080 [9] = assay: Cell cycle arrest in human HT-1080 cells assessed as S phase cells at 10 uM incubated for 24 hrs by PI staining based flow cytometric analysis (reference value: 18.3 %); format: functional
HT-1080 [10] = assay: Cell cycle arrest in human HT-1080 cells assessed as G2 phase cells at 8 uM incubated for 24 hrs by PI staining based flow cytometric analysis (reference value: 23.6 %); format: functional
HT-1080 [11] = assay: Antiproliferative activity against human HT-1080 cells harboring IDH1 R132C mutant assessed as reduction in cell viability incubated for 72 hrs by MTT assay; format: functional
[12] = biological target: T1, Isocitrate dehydrogenase [NADP] cytoplasmic; assay: Inhibition of recombinant human IDH1 R132H mutant extracted from Escherichia coli BL21 (DE3) cells using alpha-ketoglutarate as substrate incubated for 60 mins in presence of NADPH by absorbance based assay
L02 = assay: Cytotoxicity against human L02 cells assessed as reduction in cell viability at 0.5 to 2 uM; format: toxicity, cell-based; conditions: l02, 2 µM, dose 0.5-2 µM
HT-1080 [13] = assay: Cell cycle arrest in human HT-1080 cells assessed as G1 phase cells at 8 uM incubated for 24 hrs by PI staining based flow cytometric analysis (reference value: 58.1 %); format: functional
HT-1080 [14] = assay: Induction of apoptosis in human HT-1080 cells assessed as viable cells at 2 uM incubated for 48 hrs by Annexin V-FITC/PI staining based flow cytometric analysis (reference value: 96.07 %); format: functional; conditions: read-out: Activity
HT-1080 [15] = assay: Cell cycle arrest in human HT-1080 cells assessed as G1 phase cells at 4 uM incubated for 24 hrs by PI staining based flow cytometric analysis (reference value: 58.1 %); format: functional
HT-1080 [16] = assay: Cell cycle arrest in human HT-1080 cells assessed as S phase cells at 4 uM incubated for 24 hrs by PI staining based flow cytometric analysis (reference value: 18.3 %); format: functional
HT-1080 [17] = assay: Induction of apoptosis in human HT-1080 cells assessed as early apoptotic cells at 4 uM incubated for 48 hrs by Annexin V-FITC/PI staining based flow cytometric analysis (reference value: 2.33 %); format: functional
U-87 MG = assay: Antiproliferative activity against human U-87 MG cells harboring IDH1 R132H mutant assessed as reduction in cell viability incubated for 72 hrs by MTT assay; format: functional, U-87MG ATCC
HT-1080 [18] = assay: Induction of apoptosis in human HT-1080 cells assessed as early apoptotic cells at 6 uM incubated for 48 hrs by Annexin V-FITC/PI staining based flow cytometric analysis (reference value: 2.36 %); format: functional
[19] = biological target: Isocitrate dehydrogenase [NADP] cytoplasmic (Homo sapiens, UniProt O75874, R132C); assay: Inhibition of recombinant human IDH1 R132C mutant extracted from Escherichia coli BL21 (DE3) cells using alpha-ketoglutarate as substrate incubated for 60 mins in presence of NADPH by absorbance based assay
Sequence of Isocitrate dehydrogenase [NADP] cytoplasmic (Homo sapiens, UniProt O75874, R132C) (O75874 2-414 R132C limits assumed): as the sequence (O75874 2-414 R132H limits assumed) above, with H131C counted along it

HT-1080 [20] = assay: Antiproliferative activity against human HT-1080 cells harboring IDH1 R132C mutant assessed as reduction in cell viability at 10 uM incubated for 72 hrs by MTT assay; format: functional, cell-based
HT-1080 [21] = assay: Induction of apoptosis in human HT-1080 cells assessed as early apoptotic cells at 6 uM incubated for 12 hrs by Annexin V-FITC/PI staining based flow cytometric analysis (reference value: 2.36 %); format: functional
HT-1080 [22] = assay: Induction of apoptosis in human HT-1080 cells assessed as necrotic cells at 8 uM incubated for 48 hrs by Annexin V-FITC/PI staining based flow cytometric analysis (reference value: 0.45 %); format: functional
HT-1080 [23] = assay: Antitumor activity against human HT-1080 cells xenografted in female nude mouse assessed as suppression of tumor growth at 40 mg/kg, ip administered every 2 days for 8 days; format: functional, organism-based; conditions: time 8.0 day
HT-1080 [24] = assay: Induction of apoptosis in human HT-1080 cells assessed as viable cells at 8 uM incubated for 48 hrs by Annexin V-FITC/PI staining based flow cytometric analysis (reference value: 96.07 %); format: functional; conditions: read-out: Activity
HT-1080 [25] = assay: Induction of apoptosis in human HT-1080 cells assessed as necrotic cells at 6 uM incubated for 12 hrs by Annexin V-FITC/PI staining based flow cytometric analysis (reference value: 0.38 %); format: functional
HT-1080 [26] = assay: Induction of apoptosis in human HT-1080 cells assessed as viable cells at 6 uM incubated for 12 hrs by Annexin V-FITC/PI staining based flow cytometric analysis (reference value: 96.65 %); format: functional; conditions: read-out: Activity
HT-1080 [27] = assay: Inhibition of cell migration in human HT-1080 cells incubated for 24 hrs by cell scratch assay; format: functional, cell-based; conditions: dose 1-3 µM
HT-1080 [28] = assay: Induction of apoptosis in human HT-1080 cells assessed as viable cells at 6 uM incubated for 48 hrs by Annexin V-FITC/PI staining based flow cytometric analysis (reference value: 96.65 %); format: functional; conditions: read-out: Activity
[29] = Toxicity in female nude mouse xenografted with human HT-1080 cells assessed as body weight loss at 40 mg/kg, ip administered every 2 days for 8 days; format: organism-based; conditions: in vivo, 192 h, time 8 day
[30] = Cmax in Sprague-Dawley rat at 0.5 mg/kg, iv measured after 24 hrs by LC-MS/MS analysis; format: ADME, organism-based; conditions: in vivo
[31] = Cmax in Sprague-Dawley rat at 5 mg/kg, po measured after 24 hrs by LC-MS/MS analysis; format: ADME, organism-based; conditions: in vivo
[32] = Clearance in Sprague-Dawley rat at 0.5 mg/kg, iv measured after 24 hrs by LC-MS/MS analysis; format: ADME, organism-based; conditions: in vivo
HT-1080 [33] = assay: Cell cycle arrest in human HT-1080 cells assessed as G1 phase cells at 10 uM incubated for 24 hrs by PI staining based flow cytometric analysis (reference value: 58.1 %); format: functional

SMILES: COc1cc(O)c(-c2cc(-c3ccc(O)cc3)nc(N3CCNCC3)n2)cc1CC=C(C)C
- CL/F [1]: 168 mL/min/kg
- Activity (HT-1080 [2]): 3%
- viability at 4 µM (HT-1080 [3]): 83.7%
- Activity (HT-1080 [4]): 2.13%
- Tmax [5]: 11.4 min
- EC50 [6]: 182 nM
- inhibition in vivo at 20 mg/kg [7]: 75%
- viability at 6 µM (HT-1080 [8]): 87.3%
- Activity (HT-1080 [9]): 51.6%
- Activity (HT-1080 [10]): 15.9%
- GC50 (HT-1080 [11]): 1.38 µM
- IC50 [12]: 124 nM
- Activity (L02): Non-Toxic
- Activity (HT-1080 [13]): 51.8%
- viability at 2 µM (HT-1080 [14]): 88.8%
- Activity (HT-1080 [15]): 56.1%
- Activity (HT-1080 [16]): 22.9%
- Activity (HT-1080 [17]): 4.48%
- GC50 (U-87 MG): 3.48 µM
- Activity (HT-1080 [18]): 11.25%
- IC50 [19]: 95.7 nM
- Activity (HT-1080 [20]): Active
- Activity (HT-1080 [21]): 0.62%
- Activity (HT-1080 [22]): 4.66%
- Activity (HT-1080 [23]): Active
- viability at 8 µM (HT-1080 [24]): 69.6%
- Activity (HT-1080 [25]): 4.99%
- viability at 6 µM (HT-1080 [26]): 91.5%
- inhibition (HT-1080 [27]): Dose-Dependent Effect
- viability at 6 µM (HT-1080 [28]): 80.8%
- Activity [29]: Non-Toxic
- Cmax [30]: 766 ng/mL
- Cmax [31]: 478 ng/mL
- clearance [32]: 27.3 mL/min/kg
- Activity (HT-1080 [33]): 45.4%
